From patent US11591564B2, “Peptide conjugated hydrogel substrate for the maintenance and expansion of human pluripotent stem cells” (University of Pittsburgh—Of the Commonwealth System of …, priority 2016, dated 2023) come the findings set out here.

Where “and” joins values, the source holds several entries; their conditions need not be identical. Equal values may be shown once. No end group written: not given here.

One series deals with hESCs. Description: hESC attachment and viability on HAV10-modified LBL films, effect of EDC/NHS concentration. It is filed as cell-based. Conditions: EDC/NHS used for HAV10 conjugation of PEI(Alg/PAH)5Alg films; 6 hours attachment. As to the method:
Layer-by-layer (LBL) coating onto glass coverslips was initiated by incubation in 1.1 mg/ml Polyethylenimine (PEI) for 5 min. The polyelectrolyte solutions used for LBL deposition were 1.1 mg/ml low viscosity alginate (Alg) and poly (allylamine hydrochloride) (PAH), made using 0.1 M 2-(N-morpholino) ethanesulfonic acid (MES) buffer with 0.3M NaCl at pH 6.5. Polyelectrolyte multilayers were deposited by alternatively immersing slides into Alg, followed by PAH, for 1 min each, and were subsequently washed with 0.9% NaCl for 1 min between each deposition step. This process was repeated for 5 Alg/PAH layers, and the film was terminated with a final Alg layer (PEI(Alg/PAH)5Alg). Coverslips were dried at room temperature until used.
Prepared PEI(Alg/PAH)5Alg films were functionalized with the e-cadherin mimicking peptide HAV10 using water soluble carbodiimide chemistry. […]
Human embryonic stem cells (hESCs) were treated with the ROCK inhibitor Y-27632 for 2 hours prior to harvesting. hESCs were harvested using enzyme-free dissociation buffer and were treated with the Vibrant DiD cell labeling solution, to allow for visualization of cell attachment (700 nm). […] Cell attachment for each condition was determined by normalizing the MFI of attached cells to the MFI of the total possible number of cells, for each well imaged.

Another series deals with hPSCs. Conditions: hPSCs encapsulated in alginate beads (3D), 10-100 mM BaCl2 tested, day 6.
Series [1] concerns H1 hESCs. The series can be described thus: Day 1 cell attachment to peptide conjugated alginate hydrogel (DiD label, LI-COR MFI). In kind it is cell-based, human. Conditions: peptide conjugated to alginate at 0-500 μg/ml. As to the method:
The alginate hydrogels were formed prior to peptide attachment. The culture well was coated with a thin layer of 1.1% (w/v) low viscosity alginate (Sigma-Aldrich) with 0.2% (v/v) gelatin (Sigma-Aldrich), which was allowed to dry overnight. 20 mM BaCl2 was used to rehydrate and simultaneously cross link the alginate in a thin hydrogel covering the bottom of the culture well. Peptide conjugation was done using water soluble carbodiimide chemistry. Alginate hydrogels were activated by incubating with 20 mM/10 mM EDC/NHS in buffer containing 0.3 M 2-(N-morpholino) ethanesulfonic acid (MES) and 0.1 M NaCl, for 15 min. The peptides were then added and incubated overnight at 4° C. to allow for peptide conjugation to the […] of the alginate hydrogel. After conjugation, peptide modified hydrogels were washed with 0.9% saline prior to seeding cells.
Cell Attachment. For cell attachment studies to the peptide modified hydrogels, hESC were first labeled with DiD according to manufactures instruction, a fluorescent lipophilic dye, which is incorporated in the cell membrane. hESC were treated with 10 μm Y-27632 (R&D Systems, Minneapolis, Min.) for 2 hours prior to harvesting by Accutase (Invitrogen) treatment for 5-7 min. […] Cell attachment was analyzed 24 hours after seeding. First, total cell number per well was quantified using the LI-COR Odyssey scanner and Image Studio software to obtain the total possible MFI. Dead and unattached cells were washed away and the number of attached cells per well was again quantified using the LI-COR Odyssey scanner Image Studio software. […]
Having confirmed peptide conjugation to the alginate hydrogel, our first step was to analyze cell attachment to each peptide conjugated substrate. […] After 1 day, cell attachment was quantified for each tested condition using the LI-COR Odyssey scanner. Percent cell attachment was determined by scanning the signal for total seeded cells (prior to wash) and attached cells (post-wash) and normalizing the attached cell MFI to the total cell MFI, for each peptide and peptide concentration (FIG. 9A).

Series [2] deals with H1 hESCs. The series can be described thus: Cell expansion by MTS assay, day 6 normalized to day 1. It is filed as cell-based, human. Conditions: 6 days of propagation; alginate modified with 50 μg/ml peptide, or recombinant E-cadherin. As to the method:
To determine cell expansion, cellular metabolism was assayed on cells attached to alginate conjugated with 50 μg/ml of each peptide using the CellTiter 96® AQueous One Solution Cell Proliferation Assay (MTS) after 1 and 6 days of culture, according to manufacturer's instructions. Briefly, cells were incubated with the MTS solution at a 1:5 v/v dilution for 3 hours at 37° C. Absorbance intensity of the supernatant at 490 nm was measured using a Synergy 2 multi-mode Microplate Reader. Fold expansion was determined by normalizing the day 6 absorbance by the day 1 absorbance, for cells grown on each peptide-conjugated alginate substrate.
Since high cell expansion is necessary to generate clinically relevant numbers of hPSCs, we next quantified the expansion potential of hPSCs grown on each peptide. Expansion potential was determined by normalizing cell number after 6 days of propagation, by day 1 cell number using MTS.
(In general: Tetrazolium dyes change colour on reduction, which living cells bring about.)

Series [3] deals with H1 hESCs. Description: Pluripotency after propagation, qRT-PCR of OCT4 and Nanog. To be noted: 6 days on alginate conjugated with 50 μg/ml peptide. It is filed as cell-based, human. As to the method: (§1) hESC seeded on the peptide modified alginate hydrogels were propagated for 4 days in mTeSR1 with 10 μm Y-27632 prior to DE induction. DE was induced using 100 ng/ml ActivinA (R&D Systems) with 25 ng/ml Wnt3A (R&D Systems) for 4 days. Quantitative Reverse Transcriptase Polymerase Chain Reaction. mRNA was isolated using the NucleoSpin RNA II kit (Macherey-Nagel, Bethlehem, Pa.). cDNA was obtained using ImpromII Reverse Transcription (Promega, Madison, Wis.). Each PCR reaction contained 5 μl SYBR Green Master Mix (Agilent, Santa Clara, Calif.), 2 μl nuclease free H2O, 2 μl primer, and 10 cDNA. Samples were normalized to the house keeping gene GAPDH and analyzed relative to UD hESCs using the ΔΔCt method. Gene expression was measured with quantitative polymerase chain reaction (qRT-PCR) using an MX3005P system (Agilent).
Having confirmed that the substrates supported attachment and propagation of hPSCs, the next step was to analyze the maintenance of hPSC pluripotency after propagation. hPSC pluripotency is the ability to become any cell type in the body, and along with self-renewal, is the defining characteristic of hPSCs. The maintenance of pluripotency is critical for the downstream differentiation of hPSC into any functional cell types, for cell therapy applications. hPSCs were seeded on alginate conjugated with 50 μg/ml of HAV10, ADT10, HAV6, or ADT, and propagated for 6 days. […] As before, cell morphology was similar across each peptide, and appeared to have similar morphology to the typical hPSC colony (FIG. 12A).
In general terms: Real-time PCR tracks product formation cycle by cycle.

In series [4] the test system is H1 hESCs. Description: Directed differentiation to definitive endoderm, qRT-PCR of SOX17 and FOXA2. It is filed as cell-based, human. To be noted: for FOXA2 gene expression, fold increase / SOX17 gene expression, upregulation compared to undifferentiated hESC controls: after DE induction (ActivinA + Wnt3A, 4 days); for FOXA2 expression, difference compared to Matrigel / SOX17 expression, difference compared to Matrigel: after DE induction. How it is done: as §1
Having confirmed that hPSCs maintained high pluripotency after being propagated on the E-cadherin mimicking substrates, the next question was if the differentiation potency was also maintained. To evaluate differentiation potential, cells were induced toward the definitive endoderm (DE) germ layer.

Experimental for hPSCs: hESCs were encapsulated using 10, 15, 20, 50 or 100 mM BaCl2 at a seeding density of 1×10^6 cells/ml of alginate solution. Alginate capsules were incubated for 6-8 min in the BaCl2 solution. Capsules were washed three times with DMEM/F12 and suspended in mTeSR1 ([sequence] Technologies, Vancouver, BC) with 10 mM of the ROCK inhibitor (rho-associated, coiled-coil containing protein kinase inhibitor) Y-27632 (e.g., 4-[(1R)-1-aminoethyl]-N-4-pyridinyl-trans-cyclohexanecarboxamide, dihydrochloride, [sequence] Technologies, Vancouver, BC) for 4 days, followed by 2 days in mTeSR1 alone to allow for colony formation. On day 6, viability of encapsulated hPSCs was analyzed by LIVE/DEAD staining, and imaged with fluorescent microscopy. The stock LIVE images from LIVE/DEAD analysis were processed using Metamorph Integrated Morphometry Analysis. hPSC colony data was generated for each colony within each image, measuring the area of the colony. This image processing was done on images taken on 5 capsules, each day for each condition.

“1-ethyl-3-(-3-dimethylaminopropyl) carbodiimide hydrochloride (EDC)/N-hydroxysuccinimide (NHS) [EDC/NHS]”: the “toxicity towards hPSC attachment and viability” value in the series with hESCs was “mild toxicity”.
`[Ba+2].[Cl-].[Cl-]` [Barium Chloride (BaCl2), Barium Chloride]: in the series with hPSCs, the “BaCl2 concentration supportive and strongly inductive of hPSC growth” value is recorded as less than 15 mM.
For “ADTPPV (also: conjugated to alginate hydrogel, site not given here) [ADT6]”, in the series on H1 hESCs [1], the “peptide concentration at which cell attachment peaked” value worked out at 50 µg/mL. In addition, the “fold expansion of hPSCs (day 6 / day 1)” value in the series on H1 hESCs [2] came out at 11 fold. In the series on H1 hESCs [3], the “Nanog gene expression, upregulation compared to Matrigel” value is listed as “on par with Matrigel” and the “OCT4 gene expression, upregulation compared to Matrigel” value was “on par with Matrigel”. Also, in the series with H1 hESCs [4], the “FOXA2 gene expression, fold increase” value came to 174 fold and the “SOX17 gene expression, upregulation compared to undifferentiated hESC controls” value is on record as 3400 fold.
Consider “LFSHAVSSNG (also: conjugated to alginate hydrogel, site not given here) [HAV10]”, for which, in the series on H1 hESCs [1], the “peptide concentration at which cell attachment peaked” value was determined as 50 µg/mL. In the series on H1 hESCs [2], the “fold expansion of hPSCs (day 6 / day 1)” value is on record as “approximately 23 fold”. In the series on H1 hESCs [4], the “FOXA2 expression, difference compared to Matrigel” value is given as “no statistical difference”; the “SOX17 expression, difference compared to Matrigel” value is reported as “no statistically significant difference”; the “FOXA2 gene expression, fold increase” value was found to be 497 fold; the “SOX17 gene expression, upregulation compared to undifferentiated hESC controls” value is listed as roughly 15000 fold.
With “QGADTPPVGV (also: conjugated to alginate hydrogel, site not given here) [ADT10]”, the “cell attachment compared among peptides” value in the series on H1 hESCs [1] was “highest cell attachment among all peptides”. In addition, the “fold expansion of hPSCs (day 6 / day 1)” value in the series with H1 hESCs [2] is “approximately 14 fold”. Besides, in the series on H1 hESCs [3], the “Nanog gene expression, upregulation compared to Matrigel” value was 1.5 fold and 1.6 fold; the “OCT4 gene expression, upregulation compared to Matrigel” value was 3 fold and 3.6 fold. Besides, in the series on H1 hESCs [4], the “FOXA2 expression, difference compared to Matrigel” value is “no statistical difference”; the “SOX17 expression, difference compared to Matrigel” value is “no statistically significant difference”; the “FOXA2 gene expression, fold increase” value was determined as 409 fold; the “SOX17 gene expression, upregulation compared to undifferentiated hESC controls” value is given as roughly 13700 fold.
On to “SHAVSS (also: conjugated to alginate hydrogel, site not given here) [HAV6]”, for which, in the series on H1 hESCs [2], the “fold expansion of hPSCs (day 6 / day 1)” value was 16 fold. Also, in the series on H1 hESCs [3], the “Nanog gene expression, upregulation compared to Matrigel” value was determined as 1.5 fold and the “OCT4 gene expression, upregulation compared to Matrigel” value is 2 fold. In addition, in the series with H1 hESCs [4], the “FOXA2 gene expression, fold increase” value amounted to 355 fold and the “SOX17 gene expression, upregulation compared to undifferentiated hESC controls” value is reported as 5900 fold.
